Patent publication US7985731B2, “Sugar chain added GLP-1 peptide” (Otsuka Chemical Holdings Co., Ltd., priority 2007, dated 2011)

What was measured:
C57BL/6JJcl mice = assay: Test Example 7: Oral Glucose Tolerance Test (OGTT); type: in vivo; conditions: 9 nmol/kg intraperitoneal 30 minutes before glucose 1 mg/g oral
Method: After 30 minutes, a glucose solution was orally administered at a dose of 1 mg/g. Blood was collected from the orbits before the glucose administration and 30 minutes, 60 minutes and 120 minutes after the glucose administration. Blood-sugar levels were measured using ACCU-CHEK Aviva (Roche Diagnostics).
After the oral administration of the glucose solution to the mice fasted overnight, blood was collected over time, and blood-sugar levels were measured.
The correlation between the oligosaccharide chain structure and the activity was studied in mouse OGTT.

mouse GLP-1 receptor = molecular target: T1, mouse GLP-1 receptor (Mus musculus, UniProt O35659); assay: Test Example 6: ability to synthesize cAMP in mouse GLP-1 receptor-expressing CHO-K1 cells; type: cell-based
T1 construct: expressed in transfected cells
T1 sequence (O35659 22-463): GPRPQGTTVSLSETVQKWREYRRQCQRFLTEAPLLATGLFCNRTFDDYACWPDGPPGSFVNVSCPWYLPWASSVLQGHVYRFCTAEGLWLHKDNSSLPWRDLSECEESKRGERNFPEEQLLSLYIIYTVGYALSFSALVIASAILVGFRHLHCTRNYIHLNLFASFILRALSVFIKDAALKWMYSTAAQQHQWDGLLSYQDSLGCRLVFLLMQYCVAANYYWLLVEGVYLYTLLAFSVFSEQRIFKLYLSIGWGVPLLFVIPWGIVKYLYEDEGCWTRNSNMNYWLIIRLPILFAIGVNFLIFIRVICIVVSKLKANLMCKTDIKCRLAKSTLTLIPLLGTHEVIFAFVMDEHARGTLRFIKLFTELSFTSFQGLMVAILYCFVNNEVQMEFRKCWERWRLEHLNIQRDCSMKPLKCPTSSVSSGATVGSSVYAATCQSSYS
Method: 1. Construction of Mouse GLP-1 Receptor-Expressing Vector
A mouse GLP1 receptor sense primer (5′-[…]-3′) (SEQ ID NO: 152) and a mouse GLP-1 receptor antisense primer (5′-[…]-3′) (SEQ ID NO: 153) capable of binding to the 5′ and 3′ ends of mouse GLP-1 receptor cDNA were separately synthesized. PCR was performed using Ex Taq polymerase (TaKaRa) with cDNA (Clone ID: 40046534, Open Biosystems) as a template. Specifically, 50 μL in total of reaction solution consisting of 1 μL of template cDNA (10 ng/μL), 4 μL of 2.5 mM dNTPs, 1 μL of primer solution mixtures (each 50 μM), 5 μL of ×10 Ex Taq polymerase Buffer, 0.25 μL of Ex Taq polymerase and 38.75 μL of sterilized water was used and allowed to react by 94° C. for 1 minute; 94° C. for 45 seconds, 55° C. for 1 minute and 72° C. for 2 minutes (35 cycles); and 72° C. for 10 minutes. The PCR reaction product was electrophoresed on 1% agarose gel, and the cDNA fragment was purified using Wizard SV Gel and PCR Clean-up System (Promega) and treated with restriction enzymes (EcoRI and NheI) to obtain mouse GLP-1 receptor cDNA.
To efficiently obtain cells highly expressing a mouse GLP-1 receptor, a pIRES-gfp vector was used as an expression vector. This vector was prepared by inserting, to a vector pEGFP-N1 (Clontech), an IRES gene-containing DNA fragment obtained by the restriction enzyme treatment (Sal I and BamHI) of pIRESpuro2 (Clontech).
The mouse GLP-1 receptor cDNA fragment was inserted to pIRES-gfp to thereby obtain a mouse GLP-1 receptor-expressing vector mGLP-1R/pIRES-gfp. The DNA sequence of the obtained vector was confirmed using ABI3100-Avant (Applied Biosystems).
2. Preparation of Mouse GLP-1 Receptor-Expressing CHO-K1 Cells
CHO-K1 cells (ATCC catalog No. CCL-61) were transfected with the obtained mGLP-1R/pIRES-gfp using FuGENE (registered trademark) (Roche) according to the instruction manual. The transfected CHO-K1 cells were cultured in RPMI1640 medium (Wako Pure Chemical Industries) containing 10% FCS (Hyclone) and penicillin-streptomycin (SIGMA). Drug selection was conducted by the addition of 1.0 mg/ml G418 (Wako Pure Chemical Industries). The drug resistance cells were sorted with a cell sorter (EPICS ALTRA, Beckman Coulter) using a GFP expression level as an index. After the sorting, the limiting dilution method was conducted to obtain cells highly expressing GFP, namely, cells highly expressing a mouse GLP-1 receptor. The obtained cells were used as mouse GLP-1 receptor-expressing CHO-K1 cells in the experiment shown below.
3. Analysis of Agonist Effect of Oligosaccharide Chain Added GLP-1 Peptide (Ability to Synthesize cAMP)
The mouse GLP-1 receptor-expressing CHO-K1 cells prepared in the preceding paragraph 2 were used to evaluate the agonist effect of the oligosaccharide chain added GLP-1 peptide using the ability to synthesize cAMP as an index.
The mouse GLP-1 receptor-expressing CHO-K1 cells were suspended at a concentration of 5×10^5 cells/ml in RPMI1640 medium containing 10% FCS. The cell suspension was seeded at a concentration of 100 μL per well to a flat-bottomed 96-well plate (Falcon) and cultured at 5% CO2 at 37° C. for 16 hours. The culture supernatant was discarded. The oligosaccharide chain added GLP-1 peptide dissolved in Krebs Ringer bicarbonate Buffer containing 2.5 mM glucose was added at a concentration of 100 μL/well and cultured at 37° C. for 30 minutes. The culture supernatant was immediately discarded. The amount of cAMP synthesized in the mouse GLP-1 receptor-expressing CHO-K1 cells was measured using cAMP ELISA Kit (GE Healthcare or Cayman) and used as an index for the agonist effect of the oligosaccharide chain added GLP-1 peptide on mouse GLP-1 receptors.
GLP-1 increases intracellular cAMP concentrations through the binding to its receptor and promotes insulin secretion. Thus, the activity of the oligosaccharide chain added GLP-1 peptide was evaluated using the ability to synthesize cAMP as an index. […]

| Compound | effect of suppressing rise in blood-sugar levels in OGTT (C57BL/6JJcl mice) | cAMP synthesis activity compared with GLP-1 (in words) (mouse GLP-1 receptor) |
| --- | --- | --- |
| CC[C@H](C)[C@H](NC(=O)[C@H](Cc1ccccc1)NC(=O)[C@H](CCC(=O)O)NC(=O)[C@H](CSCC(=O)N[C@@H]1O[C@H](CO)[C@@H](O[C@@H]2O[C@H](CO)[C@@H](O[C@@H]3O[C@H](CO[C@H]4O[C@H](CO)[C@@H](O)[C@H](O)[C@@H]4O[C@@H]4O[C@H](CO)[C@@H](O[C@@H]5O[C@H](CO)[C@H](O)[C@H](O)[C@H]5O)[C@H](O)[C@H]4NC(C)=O)[C@@H](O)[C@H](O[C@H]4O[C@H](CO)[C@@H](O)[C@H](O)[C@@H]4O[C@@H]4O[C@H](CO)[C@@H](O[C@@H]5O[C@H](CO)[C@H](O)[C@H](O)[C@H]5O)[C@H](O)[C@H]4NC(C)=O)[C@@H]3O)[C@H](O)[C@H]2NC(C)=O)[C@H](O)[C@H]1NC(C)=O)NC(=O)[C@H](C)NC(=O)[C@H](C)NC(=O)[C@H](CCC(N)=O)NC(=O)CNC(=O)[C@H](CCC(=O)O)NC(=O)[C@H](CC(C)C)NC(=O)[C@H](Cc1ccc(O)cc1)NC(=O)[C@H](CO)NC(=O)[C@H](CO)NC(=O)[C@@H](NC(=O)[C@H](CC(=O)O)NC(=O)[C@H](CO)NC(=O)[C@@H](NC(=O)[C@H](Cc1ccccc1)NC(=O)[C@@H](NC(=O)CNC(=O)[C@H](CCC(=O)O)NC(=O)[C@H](C)NC(=O)[C@@H](N)Cc1c[nH]cn1)[C@@H](C)O)[C@@H](C)O)C(C)C)C(=O)N[C@@H](C)C(=O)N[C@@H](Cc1c[nH]c2ccccc12)C(=O)N[C@@H](CC(C)C)C(=O)N[C@H](C(=O)N[C@@H](CCCCN)C(=O)NCC(=O)N[C@@H](CCCNC(=N)N)C(=O)NCC(=O)O)C(C)C [Example 25, 26Cys GLP-1-asialo] | strong effect of suppressing rise in blood-sugar levels | activity equal to or more than that of the GLP-1 |
| CC[C@H](C)[C@H](NC(=O)[C@H](Cc1ccccc1)NC(=O)[C@H](CCC(=O)O)NC(=O)[C@H](CCCCN)NC(=O)[C@H](C)NC(=O)[C@H](C)NC(=O)[C@H](CCC(N)=O)NC(=O)CNC(=O)[C@H](CCC(=O)O)NC(=O)[C@H](CC(C)C)NC(=O)[C@H](Cc1ccc(O)cc1)NC(=O)[C@H](CO)NC(=O)[C@H](CO)NC(=O)[C@@H](NC(=O)[C@H](CC(=O)O)NC(=O)[C@H](CO)NC(=O)[C@@H](NC(=O)[C@H](Cc1ccccc1)NC(=O)[C@@H](NC(=O)CNC(=O)[C@H](CCC(=O)O)NC(=O)[C@H](C)NC(=O)[C@@H](N)Cc1c[nH]cn1)[C@@H](C)O)[C@@H](C)O)C(C)C)C(=O)N[C@@H](C)C(=O)N[C@@H](Cc1c[nH]c2ccccc12)C(=O)N[C@@H](CC(C)C)C(=O)N[C@H](C(=O)N[C@@H](CSCC(=O)N[C@@H]1O[C@H](CO)[C@@H](O[C@@H]2O[C@H](CO)[C@@H](O[C@@H]3O[C@H](CO[C@H]4O[C@H](CO)[C@@H](O)[C@H](O)[C@@H]4O[C@@H]4O[C@H](CO)[C@@H](O[C@@H]5O[C@H](CO)[C@H](O)[C@H](O)[C@H]5O)[C@H](O)[C@H]4NC(C)=O)[C@@H](O)[C@H](O[C@H]4O[C@H](CO)[C@@H](O)[C@H](O)[C@@H]4O[C@@H]4O[C@H](CO)[C@@H](O[C@@H]5O[C@H](CO)[C@H](O)[C@H](O)[C@H]5O)[C@H](O)[C@H]4NC(C)=O)[C@@H]3O)[C@H](O)[C@H]2NC(C)=O)[C@H](O)[C@H]1NC(C)=O)C(=O)NCC(=O)N[C@@H](CCCNC(=N)N)C(=O)NCC(=O)O)C(C)C [Example 27, 34Cys GLP-1-asialo] | strong effect of suppressing rise in blood-sugar levels | activity equal to or more than that of the GLP-1 |
